Data: paper PMC10301896 (Pharmaceutics, 2023)
Counter-ions that a name gives are not always drawn.

Tests used:
[1] = Chelation with Al3+ ion in vitro (precipitation with AlCl3); format: physicochemical; conditions: drug 50 μM, pH 6.5, 30 min, 24 °C
Experimental: AlCl3 was also dissolved in the same buffer at a concentration of 50 μM, 100 μM, 200 μM, 1 mM, or 2 mM, and each drug solution and AlCl3 solution were mixed at an equal volume. The mixture solution was shaken, stood for 30 min at 24 °C and centrifuged. The supernatant was filtrated through a syringe filter with 0.22 μm of pore size (Millipore, Tokyo, Japan).

in vivo [2] = conditions: for AUC(0-t) / AUC(0-inf) / bioavailability / Cmax / Tmax: male, albino, rabbit, in vivo, po, 150 mg/kg, TC 150 mg/kg orally; for AUC(0-t): AUC0–6h; for AUC(0-inf): AUC0–∞; for bioavailability: Bioavailability (absolute oral)
Experimental: Rabbits were supplied solid food for rabbits (CR-3M, CLEA Japan, Inc., Tokyo, Japan), and the average amount of CR-3M that each rabbit ingested was 100–110 g/day. CR-3M contains various vitamins and cationic metals including Ca, Mg, and iron (Fe^2+, Fe^3+) in addition to various energy sources. […] Coprophagy was not prevented in control rabbits.
After administration orally by stomach intubation, blood samples (100 μL each) were taken periodically from the ear vein at 0.25, 0.5, 1, 2, 4 and 6 h. Blood samples were centrifuged at 3000× g for 10 min to obtain plasma samples.

[3] = control rabbits
in vivo [4] = conditions: male, albino, rabbit, iv, 10 mg/kg
[5] = cited from earlier work

Structure (SMILES): CN(C)[C@@H]1C(O)=C(C(N)=O)C(=O)[C@@]2(O)C(O)=C3C(=O)c4c(O)cccc4[C@@](C)(O)[C@H]3C[C@@H]12 [TC, tetracycline hydrochloride]
- Precipitation (%) ([1]; AlCl3 25 μM): 63.2 ± 21.3%
- Precipitation (%) ([1]; AlCl3 50 μM): 84.0 ± 13.9%
- Precipitation (%) ([1]; AlCl3 100 μM): 91.6 ± 7.3%
- Precipitation (%) ([1]; AlCl3 500 μM): 96.2 ± 5.7%
- Precipitation (%) ([1]; AlCl3 1 mM): 99.4 ± 1.19%
- TC in plasma after oral administration (in vivo [2]; at a lower dose than 30 mg/kg, rabbits): not detected
- AUC(0-t) (in vivo [2]; EDTA-treated rabbits): 4680 ± 930 ng·h/mL
- AUC(0-t) (in vivo [2]; control rabbits): 2540 ± 910 ng·h/mL
- AUC(0-inf) (in vivo [2]; EDTA-treated rabbits): 6490 ± 1080 ng·h/mL
- AUC(0-inf) (in vivo [2]; control rabbits): 3390 ± 1260 ng·h/mL
- bioavailability (in vivo [2]; EDTA-treated rabbits): 4.9 ± 0.81%
- bioavailability (in vivo [2]; control rabbits): 2.56 ± 0.95%
- Cmax (in vivo [2]; EDTA-treated rabbits): 1120 ± 280 ng/mL
- Cmax (in vivo [2]; control rabbits): 730 ± 220 ng/mL
- Tmax (in vivo [2]; EDTA-treated rabbits): 2 h
- Tmax (in vivo [2]; control rabbits): 1.67 ± 0.58 h
- β ([3]; […] iv infusion, LFX 20, CFX 30, TC 10 mg/kg): 0.28 ± 0.10 h⁻¹
- Total plasma clearance (CLtotal), Doseiv/AUC0–∞ ([3]; iv infusion): 18.83 mL/min/kg
- AUC(0-t) (in vivo [4]): 7570 ± 1380 ng·h/mL
- Oral bioavailabilities in humans ([5]; LFX 200–750 mg, CFX 200–1000 mg, TC 250 mg, ref references listed in the discussion section): 77–88% (250 mg)
- Absolute oral bioavailability ([5]; humans, dose of 250 mg): 77–88%
